Measured values taken from patent publication US7902234B2, “Thiadiazoline derivative” (Kyowa Hakko Kirin Co., Ltd., priority 2001, dated 2011).

Test system: HCT 116 cells
Assay: Antiproliferative activity in HCT 116 human colon cancer cells (XTT)
Assay type: cell-based
Details: 72 hours incubation with compound, XTT absorbance 490 nm minus 655 nm, read-out: GI50 (concentration of 50% proliferation inhibition)
Experimental: HCT 116 cells (ATCC No.: CCL-247) were placed on a 96-well microliter plate (Nunc, 167008) at a density of 1×10^3 cells/well. The plate was incubated in a 5% CO2 incubator at 37° C. for 24 hours, and then to the plate was added test compounds diluted stepwise to […] in total, and the plate was further incubated in a 5% CO2 incubator at 37° C. for 72 hours. To the culture medium, the XTT (sodium 3′-[1-(phenylaminocarbonyl)-3,4-tetrazolium)-bis(4-methoxy-6-nitro)benzenesulfonic acid hydrate) labeling mixture (Roche Diagnostics, 1465015) was dispensed in […] portions, then the plate was incubated in a 5% CO2 incubator at 37° C. for 1 hour, and the absorbance was measured at 490 nm and 655 nm with a microplate spectrophotometer (Bio-Rad, Model 550). The inhibitory activity against cell proliferation was shown as a concentration of 50% proliferation inhibition, GI50.
GI50 calculation method: The value (difference in absorbance) was calculated by subtracting the absorbance at 655 nm from the absorbance at 490 nm of each well. […]

Row | Structure (SMILES) | GI50
1 | CC(=O)N(C)C1=NN(C(C)=O)C(C)(c2ccccc2)S1 (centres unmarked) [Compound 7] | 480 nM
2 | CC(=O)NC1=NN(C(C)=O)C(C)(c2ccccc2)S1 (centres unmarked) [Compound 1] | 1000 nM
